Source: patent US8748491B2, “Dietary and pharmaceutical compositions containing tricyclic diterpenes and their derivatives and their uses” (priority 2006, dated 2014)

Legend:
mouse [1] = experiment: Light dark box test; type: in vivo; details: for NUMBER OF CROSSINGS % change from control: mouse
Source text: The method, which detects anxiolytic activity, follows that described by Crawley, 1981 Pharmacol. Biochem. Behav., 15:695-699. Anxiolytics increase the time spent in the light compartment.
Animals were placed into the light compartment of a 2-compartment box with one half light and open (25×27×27 cm) and the other half dark and closed (20×27×27 cm). The time spent in each compartment as well as the number of times the animal crosses from one side to the other is scored during a 3-minute test. 15 mice were studied per group. The test was performed blind.
Carnosic acid was evaluated at 3 doses (100, 200, 400 mg/kg BW), administered by oral gavage (p.o.) 24, 5 and 1 hour before the test, and compared with a vehicle control group (corn oil). Carnosic acid was dissolved in corn oil (“vehicle”). Clobazam (32 mg/kg p.o.), administered 1 hour before the test, was used as reference substance. Mice in this group received additional administrations of vehicle at 24 and 5 hours before the test in order to maintain experimental blinding.

[2] = biological target: T1, human dopamine transporter (hDAT) (Homo sapiens, UniProt Q01959); experiment: Inhibition of dopamine reuptake into transfected CHO-Ki/hDAT cells; type: cell-based; details: 50 nM [3H]Dopamine
T1 construct: expressed in transfected cells; host or cells: CHO-Ki (so in the source)
Procedure: CHO-Ki/hDAT cells expressing the human dopamine transporter (hDAT) were plated before the assay. Cells (2×10^5/ml) were incubated with carnosic acid and/or vehicle in modified Tris-HEPES buffer, pH 7.1, at 25° C. for 20 minutes before addition of 50 nM [^3H]Dopamine for 10 minutes. Specific signal was determined in the presence of 10 μM nomifensine (dopamine reuptake inhibitor). Cells were then solubilised with 1% SDS lysis buffer. Reduction of [^3H]Dopamine uptake by 50 per cent or more (≧50%) relative to vehicle controls indicated significant inhibitory activity.

[3] = biological target: T2, human serotonin re-uptake transporter (hSERT) (Homo sapiens, UniProt P31645); experiment: Inhibition of tritiated serotonin uptake into transfected HEK-293 cells; type: cell-based; details: HEK-293 cells expressing hSERT; 20 nM [3H] serotonin, 40 min, 37° C.; mean ± s.e.m.
T2 construct: host or cells: HEK-293
Source text: HEK-293 cells stably expressing the human serotonin re-uptake transporter (hSERT) were obtained from R. Blakely, Vanderbilt University, USA. The cells were routinely grown in Dulbecco's Modified Eagle's Medium (Bioconcept) containing 10% fetal calf serum, penicillin, streptomycin, L-glutamine and the antibiotic G418 and passaged by trypsinisation. On the day of assay, cells from 80% confluent flasks were harvested by gentle washing with warm phosphate buffered saline (PBS). […] Serotonin uptake into the cells was determined by addition of radio-labelled [^3H] serotonin (GE Healthcare) at a concentration of 20 nM, and incubation for 40 minutes at 37° C. with gentle shaking. At the end of this time unincorporated label was removed by filtration though Unifilter 96 GF/B plates (Perkin Elmer) using a Tomtec Mach III M cell harvester. The incorporated serotonin retained on the plates was quantified by liquid scintillation counting using Microscint-40/Topcount (Perkin Elmer).

mouse [4] = experiment: Marble burying test; type: in vivo; details: mouse; for NUMBER OF MARBLES COVERED BY SAWDUST % change from control / NUMBER OF MARBLES COVERED BY SAWDUST mean ± s.e.m.: Table 5
Procedure: The method applied here follows that described by Broekkamp et al., supra. Mice (n=15 per treatment group) were individually placed in transparent plastic cages (33×21×18 cm) with 5 cm of sawdust on the floor and 25 marbles (diameter 1 cm) grouped in the centre of the cage. A second, up-turned, cage served as a lid. The number of marbles covered by sawdust (by at least two-thirds) was counted at the end of the 30-minute test period. Tests were performed by investigators blind to the drug treatment protocol.
Prior to testing, all test cages and marbles were “impregnated” by leaving 10 naive mice in each cage for 15 minutes. […]
Data were analysed by comparing treated groups with vehicle control using unpaired Student's t-tests.

[5] = biological target: T3, Monoamine oxidase A (MAO-A) (Homo sapiens, UniProt P21397); experiment: Monoamine oxidase A inhibition (p-tyramine substrate, H2O2/vanillic acid/HRP readout); type: biochemical
T3 sequence (P21397 1-527): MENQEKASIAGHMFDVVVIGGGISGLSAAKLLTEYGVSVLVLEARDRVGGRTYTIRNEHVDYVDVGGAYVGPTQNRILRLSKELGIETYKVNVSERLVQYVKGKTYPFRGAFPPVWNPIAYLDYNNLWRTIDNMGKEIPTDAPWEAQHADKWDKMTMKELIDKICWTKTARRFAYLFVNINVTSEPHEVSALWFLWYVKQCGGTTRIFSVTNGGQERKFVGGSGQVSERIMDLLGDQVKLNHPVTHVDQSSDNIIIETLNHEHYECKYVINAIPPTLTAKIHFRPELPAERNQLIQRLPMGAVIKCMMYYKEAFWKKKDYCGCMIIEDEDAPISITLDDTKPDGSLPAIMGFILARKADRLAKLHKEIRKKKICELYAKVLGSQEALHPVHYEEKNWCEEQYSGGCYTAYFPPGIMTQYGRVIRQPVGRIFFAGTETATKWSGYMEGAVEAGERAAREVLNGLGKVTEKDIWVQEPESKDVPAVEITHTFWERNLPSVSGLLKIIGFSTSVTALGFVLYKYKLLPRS
Procedure: The organic amines p-tyramine or benzylamine were used as substrates for the Monoamine oxidase A (MAO-A) and B (MAO-B) enzymes respectively. The H2O2 produced by this reaction was quantified by reaction with vanillic acid, catalysed by horse radish peroxidase (HRP).
The reactions were carried out in polystyrene microtitre plates. The MAO enzymes (final concentration 2 U/ml) were mixed with either p-tyramine (Sigma, final concentration 0.5 mM) or benzylamine (Sigma, final concentration 0.5 mM) as appropriate and the chromogenic solution (containing vanillic acid (Fluka), 4-aminoantipyrine (Fluka) and horse radish peroxidase (Sigma), final concentrations 0.25 mM, 0.125 mM and 1 U/ml respectively) in 0.2 M potassium phosphate buffer, pH 7.6. The reactions were followed in a microtitre plate absorbance reader e.g. Spectramax M5 (Molecular Devices Corporation). Absorbance readings at 495 nm were taken every 15 seconds for 40 minutes and the initial reaction velocities calculated by linear regression using SOFTmaxPro (Molecular Devices Corporation).
The effect of tricyclic diterpenes and their derivatives according to formula I on the monoamine oxidase enzymes was determined by their inclusion in the assay at a range of concentrations between 0.03 and 100 μM for 10 minutes prior to and during the incubation with substrate. To determine the effect of the compounds on the HRP catalyzed portion of the reaction, the MAO enzyme was replaced by H2O2 (Molecular Probes, final concentration 0.2 mM). The reactions containing MAO-A and MAO-B were both inhibited by tricyclic diterpenes and their derivatives according to formula I in a dose-dependent manner, whilst the control reaction, was unaffected. The measured IC50 values for inhibition of monoamine oxidase activity by carnosic acid, carnosic acid-12-methyl ether and 20-deoxo-carnosol are shown in Table 3.

T2 sequence (P31645 whole entry): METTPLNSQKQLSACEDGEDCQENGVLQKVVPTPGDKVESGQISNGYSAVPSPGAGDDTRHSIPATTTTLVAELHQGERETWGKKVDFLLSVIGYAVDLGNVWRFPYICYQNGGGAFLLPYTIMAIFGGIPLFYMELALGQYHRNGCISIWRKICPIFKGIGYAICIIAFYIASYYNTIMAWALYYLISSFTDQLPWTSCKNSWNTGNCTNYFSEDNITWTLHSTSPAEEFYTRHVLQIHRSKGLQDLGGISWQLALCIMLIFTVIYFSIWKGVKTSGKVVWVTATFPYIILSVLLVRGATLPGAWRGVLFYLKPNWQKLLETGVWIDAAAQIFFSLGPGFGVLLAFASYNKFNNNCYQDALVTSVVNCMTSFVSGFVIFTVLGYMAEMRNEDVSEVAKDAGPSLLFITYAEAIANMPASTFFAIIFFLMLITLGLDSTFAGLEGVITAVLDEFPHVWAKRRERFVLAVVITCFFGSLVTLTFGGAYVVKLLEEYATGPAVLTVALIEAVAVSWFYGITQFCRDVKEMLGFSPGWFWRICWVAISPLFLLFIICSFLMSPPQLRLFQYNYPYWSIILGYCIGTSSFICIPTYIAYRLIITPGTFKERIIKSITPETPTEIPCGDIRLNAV
T1 sequence (Q01959 whole entry): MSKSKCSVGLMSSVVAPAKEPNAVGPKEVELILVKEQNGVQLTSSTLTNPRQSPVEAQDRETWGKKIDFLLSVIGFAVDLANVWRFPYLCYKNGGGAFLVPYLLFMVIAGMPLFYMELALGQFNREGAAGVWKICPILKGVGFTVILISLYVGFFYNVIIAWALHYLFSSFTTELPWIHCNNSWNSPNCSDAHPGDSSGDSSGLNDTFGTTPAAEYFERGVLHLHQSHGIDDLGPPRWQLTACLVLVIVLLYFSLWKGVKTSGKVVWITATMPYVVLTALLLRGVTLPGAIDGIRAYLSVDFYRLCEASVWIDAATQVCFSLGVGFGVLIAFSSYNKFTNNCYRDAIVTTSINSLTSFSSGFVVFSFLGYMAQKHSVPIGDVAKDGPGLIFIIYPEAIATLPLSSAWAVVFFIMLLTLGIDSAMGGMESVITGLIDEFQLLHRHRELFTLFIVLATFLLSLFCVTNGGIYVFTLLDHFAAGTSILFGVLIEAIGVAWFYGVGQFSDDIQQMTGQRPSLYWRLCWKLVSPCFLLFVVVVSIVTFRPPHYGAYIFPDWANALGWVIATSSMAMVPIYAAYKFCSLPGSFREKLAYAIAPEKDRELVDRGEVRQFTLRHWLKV

SMILES: CC(C)c1cc2c(c(O)c1O)[C@@]1(C(=O)O)CCCC(C)(C)[C@@H]1CC2 [Carnosic acid, carnosic acid]
- NUMBER OF CROSSINGS % change from control (mouse [1]; 100 mg/kg p.o. −24, −5, −1 h): +17%
- NUMBER OF CROSSINGS % change from control (mouse [1]; 200 mg/kg p.o., −24, −5, −1 h): −21%
- NUMBER OF CROSSINGS % change from control (mouse [1]; 400 mg/kg p.o. −24, −5, −1 h): +23%
- number of crossings (in words) (mouse [1]; mouse, 100, 200 and 400 mg/kg p.o.): did not affect
- IC50 [2]: 15 µM
- IC50 [3]: 36.4 ± 6.8 µM
- NUMBER OF MARBLES COVERED BY SAWDUST % change from control (mouse [4]; 3 mg/kg i.p. −30 min): −8%
- NUMBER OF MARBLES COVERED BY SAWDUST mean ± s.e.m. (mouse [4]; 3 mg/kg i.p. −30 min): 21.9 ± 1.3
- NUMBER OF MARBLES COVERED BY SAWDUST % change from control (mouse [4]; 10 mg/kg i.p. −30 min): −4%
- NUMBER OF MARBLES COVERED BY SAWDUST mean ± s.e.m. (mouse [4]; 10 mg/kg i.p. −30 min): 22.7 ± 0.5
- NUMBER OF MARBLES COVERED BY SAWDUST % change from control (mouse [4]; 30 mg/kg i.p. −30 min): −63%
- NUMBER OF MARBLES COVERED BY SAWDUST mean ± s.e.m. (mouse [4]; 30 mg/kg i.p. −30 min): 8.7 ± 2.9
- marble burying behaviour (in words) (mouse [4]; highest dose tested (30 mg/kg) i.p.): clearly and significantly reduced marble burying behaviour
- IC50 [5]: 4.4 ± 0.3 µM
